Each structure is given as a SMILES string.

Consider one compound from patent US6861439B2, “Treatment of cerebrovascular disease” (Medicure International, Inc., priority 2000, dated 2005).

For series [1] the following is noted: in water, alcohol, and ether; cited from earlier work.
Series [2] relates to rat model of cerebral ischemia. Description: Rat model of cerebral ischemia: neurological deficit evaluation (neurobehavioral scores). The class given is in vivo, Male Wistar rats. Conditions: scale 0-4, evaluation at 2 and 24 hours after thrombus. The method, then: (§1) Male Wistar rats (250-300 g) were housed in the animal facility for a period of 12 days and given food and water ab libitum. Animals were randomly assigned to groups (n=8/group) of a) control group b) post-ischemia PLP treatment 10 mg/kg c) post-ischemia PLP treatment […] and d) post-ischemia PLP treatment 40 mg/kg.
(§2) The rats of each group were anaesthetized to surgical depth initially with 3% halothane, and maintained with 1.5% halothane in a 70% N2O/30% O2 (vol./vol.) mixture. Animal core temperature was maintained at approx 37° C. using a heating pad and an overhead lamp. Temperature was measured with a rectal thermometer.
(§3) A midline longitudinal incision of approx 2.0 cm was made in the cervical area. Both common carotid arteries (CCA) were dissected from the surrounding tissue and both the right internal carotid artery (ICA) and the right external carotid artery (ECA) were exposed to a maximal length. Branches of the right ECA will be occluded with electro-coagulation and the distal portion ligated. The right CCA and ICA were occluded by temporary clamping, after which the distal end of the ECA was cut to allow catheter insertion. A loose 5.0 silk suture was tied around the proximal right ECA. A PE-50 catheter [Becton-Dickinson, N.J., USA] (0.3 mm O.D at the tip of the catheter and O.D. 0.97 in the catheter body) was attached to a […] filled with 0.5 ml bovine alpha-thrombin (Thrombostat, Parke-Davis).
(§4) The catheter was introduced into the ICA from the ECA and CCA via a small puncture and the silk suture tied around the ECA to prevent bleeding and dislodgement. This was followed by the removal of vascular clips from the ICA and CCA. 10 ul of blood was withdrawn into the catheter and kept in place for 15 minutes for formation of a thrombin clot. Subsequently 17 mm of the catheter (calculated from the puncture site) was gently advanced through the ECA and extra-cranial portion of the ICA to approximately 2 mm from the origin of the middle cerebral artery. After temporary occlusion of the CCAs bilaterally to slow blood flow, the clot was introduced into the ICA. The clip of the contralateral CCA was removed five minutes later and the catheter was removed 10 minutes after the clot introduction. The ipsilateral ICA was then ligated prior to the removal of the clip on the right CCA, 15 minutes after clot injection. The incision was then sutured and the animals allowed to recover from anesthesia whereupon they were given free access to food & water.
Neurological deficit evaluation was conducted at 2 and 24 hours after injection of thrombus. The neurological findings were scored on a four-point grade scale: no observable deficit—0; forelimb flexion—1; forelimb flexion and decreased resistance to lateral push—2; forelimb flexion, decreased lateral push resistance and unilateral circling in three successive trials—3. A score of 4 was given to animals with a score of 3 plus decreased consciousness.
(§5) Control animals were given 3 mL saline (iv) at 2 hours following cerebral ischemia. The pre-ischemia treatment group was given PLP (10 mg/kg, iv in 3 mL) over 30 minutes 1 hour prior to ischemic insult. The post-ischemia groups received PLP at […] iv at 2 hours following cerebral ischemia.
All data was expressed as mean±SD. Two-tailed paired Students t-tests were used to compare differences between values obtained before and after treatment. Statistical analysis of more than two groups of animals were performed with ANOVA, with subsequent individual comparisons by Scheffe's test. Differences were considered significant at […].

In series [3] the test system is rat model of cerebral ischemia. The series is described as follows: Rat model of cerebral ischemia: seizures, hemorrhage and mortality. As to conditions: for mortality (number of animals): n=8/group, 2 in control group.
Series [4] has as its system rat model of cerebral ischemia. Description: Rat model of cerebral ischemia: measurement of infarct damage (TTC staining). Conditions: for Infarct Volume (mean): post-ischemia PLP iv, 24 hours after ischemia, control group 37.74%. The class given is in vivo, Male Wistar rats. The method, then:
as §1, §2, §3, §4
The infarcted brain tissue in the right MCA territory was differentiated using the 2,3,5-triphenyltetrazolium chloride (TTC) staining method. The rats were perfused transcardially with 120 ml 0.9% normal saline under deep anaesthesia, 24 hours after ischemia. The brain was then removed and cooled in ice-cold saline for 5 minutes after which it was dissected in the coronal plane at 2 mm intervals using a rat brain matrix and stored in 10% buffered formalin for fixing. The stained sections were colour scanned within seven days. The 2 mm thick coronal sections were placed directly on the scanning screen and scanned from rostral to caudal ends, with attention paid to soaking up formalin to prevent shadows, and the use of a black background.
Image contrast and brightness was adjusted with Photoshop 4.0; measurements were made by manually outlining the margins of infarct areas in each section. The total volume of infarction was determined by integrating the […] of the eight chosen sections. Values were corrected for any brain edema.
as §5
All data was expressed as mean±SD. […]

On to `Cc1ncc(COP(=O)(O)O)c(C=O)c1O` [PLP, 3-hydroxy-2-methyl-5-[(phosphonooxy)methyl]-4-pyridine-carboxaldehyde], for which the solubility result in series [1] is recorded as “essentially insoluble”. Also, the “Neurobehavioral score, final (decreased to)” value was 3 in series [2] (10 mg/kg group); 3 in series [2] (20 mg/kg group); 1.9 in series [2] (40 mg/kg group, p<0.001). In addition, the “Neurobehavioral score, initial (decreased from)” value is reported as 3.6 in series [2] (10 mg/kg group); 3.8 in series [2] (20 mg/kg group); 3.8 in series [2] (40 mg/kg group, p<0.001). Moreover, the “mortality (number of animals)” value in series [3] (10 mg/kg group) was 3; in series [3] (20 mg/kg group), 1; in series [3] (40 mg/kg group), 0. Moreover, the number of seizures entry in series [3] (the three groups (10, 20, 40 mg/kg)) was “no difference”. In series [3] (with higher doses), the risk of hemorrhage result is “did not increase”. The “Infarct Volume (mean)” value is 28.25%, in series [4] (10 mg/kg treatment group), 27.4%, in series [4] (20 mg/kg treatment group) and 19.3%, in series [4] (40 mg/kg treatment group). In addition, in series [4] (40 mg/kg dose), the “infarct reduction, statistical significance” value was “statistically significant”. In addition, in series [4] (10, 20, 40 mg/kg), the “therapeutic effect on infarct size and neurobehavioral activity” value is on record as “dose-dependant therapeutic effect”. The “anti-ischemic effect in the rat model of ischemia and reperfusion injury” value in series [4] (overall conclusion) is “demonstrates anti-ischemic effects and benefits against ischemia reperfusion injury”.
